# Measurements reported in US20050153992A1, “Pyrrolopyrimidine thion derivatives” (TEIJIN PHARMA LIMITED, priority 2003, published 2005).
# Biological target: recombinant human GSK-3β (Homo sapiens, UniProt P49841)
# Experiment: Determination of Inhibition of GSK-3 Activity (phospho-glycogen synthase peptide-2, [γ-33P]ATP, scintillation counting)
# Format: biochemical
# Settings: 20 μM ATP, 20 minutes at room temperature; read-out: GSK-3 inhibitor activity values (IC50 values)
# Method: Determination of Inhibition of GSK-3 Activity
# The reaction was initiated by adding 25 μL of phospho-glycogen synthase peptide-2 substrate solution [containing 6 μM phospho-glycogen synthase peptide-2, 20 μM ATP, 16 mM MOPS buffer (pH 7.0), 0.2 mM EDTA, 20 mM magnesium acetate, 0.1 μ Ci[γ-^33P]ATP (relative activity: approximately 110 TBq/mmol)] to 5 μL of each test compound using 5% dimethylsulfoxide as a solvent, and further adding 20 μL of GSK-3β enzyme solution [containing 10 mU recombinant human GSK-3β, 20 mM MOPS buffer (pH 7.0), 1 mM EDTA, 0.1% polyoxyethylene lauryl ether (23 Lauryl Ether; Brij 35), 5% glycerol, and 0.1% β-mercaptoethanol. After 20 minutes at room temperature, the reaction was terminated by the addition of the equivalent amount of 200 mM phosphoric acid solution. 90 μL of the reaction product was spotted onto a multiscreen PH plate (manufactured by Millipore) and washed with 100 mM phosphoric acid solution. The plate was dried, and 30 μL of MicroScint-O (manufactured by Packard BioScience) was added thereto. To evaluate inhibitory activity, cpm was counted using a scintillation counter. Here, Phospho GS Peptide 2 is an amino acid peptide having the following sequence: […]P)-Glu-Asp-Glu- Glu-Glu.
# GSK-3 inhibitor activity values (IC50 values) of the compounds according to the present invention were measured by the method described above. As a result, inhibition activity of IC50<100 nM was confirmed in compounds of compound numbers 1, 35, 36, 37, 123, 157, 158, 160, 193, 234, and 263.
# Sequence of recombinant human GSK-3β (P49841 whole entry): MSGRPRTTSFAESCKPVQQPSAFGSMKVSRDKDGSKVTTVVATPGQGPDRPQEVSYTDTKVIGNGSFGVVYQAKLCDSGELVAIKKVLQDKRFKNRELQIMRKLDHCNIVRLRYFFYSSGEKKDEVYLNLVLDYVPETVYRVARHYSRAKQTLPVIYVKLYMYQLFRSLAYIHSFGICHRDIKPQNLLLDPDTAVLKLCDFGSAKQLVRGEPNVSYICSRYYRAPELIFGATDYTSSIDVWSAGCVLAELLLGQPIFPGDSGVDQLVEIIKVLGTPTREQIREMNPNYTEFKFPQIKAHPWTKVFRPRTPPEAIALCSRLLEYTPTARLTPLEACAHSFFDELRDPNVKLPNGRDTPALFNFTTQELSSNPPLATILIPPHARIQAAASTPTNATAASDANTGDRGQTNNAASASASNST
row,SMILES,IC50
1,"S=c1[nH]cnc2c(I)c(-c3sccc3Cl)n(CCNc3ncnc4ccccc34)c12 [Compound 37, 6-(3-chloro(2-thienyl))-7-iodo-5-[2-(quinazolin-4-ylamino)ethyl]-3-hydropyrrolo[3,2-d]pyrimidin-4-thione]",< 100 nM
2,O=C(NCCn1c(-c2sccc2Cl)c(-c2cccnc2)c2nc[nH]c(=S)c21)C(F)(F)F [Compound 123],< 100 nM
3,"O=C(NCCn1c(-c2sccc2Cl)c(NC(=O)c2ccccc2)c2nc[nH]c(=S)c21)c1ccc(F)cc1 [Compound 193, N-{2-[6-(3-chloro(2-thienyl))-7-(phenylcarbonylamino)-4-thioxo(3-hydropyrrolo[3,2-d]pyrimidin-5-yl)]ethyl}(4-fluorophenyl)carboxyamide]",< 100 nM
4,"CCn1nc(C)cc1C(=O)NCCn1c(-c2sccc2Cl)c(I)c2nc[nH]c(=S)c21 [Compound 234, N-{2-[6-(3-chloro(2-thienyl))-7-iodo-4-thioxo(3-hydropyrrolo[3,2-d]pyrimidin-5-yl)]ethyl}(1-ethyl-3-methylpyrazol-5-yl)carboxyamide]",< 100 nM

# The remaining lines, values ahead:
row,IC50,SMILES
1,< 100 nM,"O=C(NCCn1c(-c2sccc2Cl)c(I)c2nc[nH]c(=S)c21)c1ccc(F)cc1 [Compound 1, N-{2-[6-(3-chloro(2-thienyl))-7-iodo-4-thioxo(3-hydropyrrolo[3,2-d]pyrimidin-5-yl)]ethyl}(4-fluorophenyl)carboxyamide]"
2,< 100 nM,O=C(NCCn1c(-c2sccc2Cl)c(Cl)c2nc[nH]c(=S)c21)c1ccc(F)cc1 [Compound 157]
3,< 100 nM,O=C(NCCn1c(-c2sccc2Cl)c(Br)c2nc[nH]c(=S)c21)c1ccc(F)cc1 [Compound 158]
4,< 100 nM,"Nc1c(-c2sccc2Cl)n(CCNC(=O)c2ccc(F)cc2)c2c(=S)[nH]cnc12 [Compound 160, N-{2-[7-amino-6-(3-chloro(2-thienyl))-4-thioxo(3-hydropyrrolo[3,2-d]pyrimidin-5-yl)]ethyl}(4-fluorophenyl)carboxyamide]"
